Results reported in PubChem BioAssay (NCI).
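Each compound was tested at five concentrations against cells in 96-well plates for 48 hours. TGI marks complete inhibition of growth.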

Key:
Experiment in all cases: DTP human tumour cell line panel, 48 h
[1] = tested on: DU-145 prostate
[2] = tested on: HCT-15 colon
[3] = tested on: HL-60(TB) leukemia
[4] = tested on: HOP-62 NSCLC
[5] = tested on: IGROV1 ovarian
[6] = tested on: NCI-H522 lung
[7] = tested on: SF-295 CNS
[8] = tested on: SW-620 colon
[9] = tested on: HS 578T breast
[10] = tested on: SR leukemia

SMILES	TGI [1]	TGI [2]	TGI [3]	TGI [4]	TGI [5]	TGI [6]	TGI [7]	TGI [8]	TGI [9]	TGI [10]
COC(=O)/C=C1\CCC(C)(C(=O)NS(=O)(=O)c2ccc(C)cc2)C1(C)C (stereo not given)	> 100 µM	> 100 µM	> 100 µM	> 100 µM	> 100 µM	> 100 µM	> 100 µM	> 100 µM		
CCOC(=O)C(=Cc1ccc(C(=O)OC)cc1)C(=O)OCC		6.76 µM	4.36 µM	4.43 µM	7.73 µM	2.8 µM	19.2 µM	6.11 µM		
Cc1cccc(C2=NC(C)(C)C(C)(C)N=C2c2cccc(C)n2)n1		> 100 µM	> 100 µM	> 100 µM	> 100 µM	> 100 µM	> 100 µM	> 100 µM		
Oc1[nH]c2ccccc2c1N=Nc1nc(-c2ccc(Cl)c(Cl)c2)cs1	> 100 µM	> 100 µM	0.718 µM	> 100 µM	> 100 µM		> 100 µM	> 100 µM		
Nc1ccccc1N/C=C\C(=O)C(Cl)(Cl)Cl	75.1 µM	46.1 µM	85.3 µM	37.2 µM	40.7 µM	> 100 µM	75.1 µM	48.1 µM	> 100 µM	
CSC1=C(C#N)C(=O)N(c2ccc(C)cc2)C(=S)C1C#N (stereo not given)		> 100 µM	> 100 µM	> 100 µM	> 100 µM	> 100 µM	> 100 µM	> 100 µM	> 100 µM	
CSc1c(C#N)c(=O)[nH]c2n[nH]c(C)c12	> 100 µM	> 100 µM	> 100 µM					> 100 µM	> 100 µM	> 100 µM
COc1cc(/C=C2\N=C(c3ccccc3)N(c3nc4c(OC)ccc(OC)c4s3)C2=O)cc(OC)c1OC	> 100 µM	> 100 µM	> 100 µM	> 100 µM	> 100 µM	> 100 µM	> 100 µM	> 100 µM	> 100 µM	
O=C1COc2ccc([N+](=O)[O-])cc2C(=O)C1	> 10 µM	> 10 µM	> 10 µM	> 10 µM	> 10 µM		> 10 µM	> 10 µM	> 10 µM	> 10 µM
[N-]=[N+]=CC(=O)OCC1SCCCS1	> 100 µM	> 100 µM	> 100 µM	> 100 µM	> 100 µM	> 100 µM	> 100 µM	> 100 µM		> 100 µM
C/C(=N\NC(N)=S)C(CN(CC(C)C)CC(C)C)C(=O)Nc1ccc(C)cc1C (stereo not given)		> 100 µM	> 100 µM	> 100 µM	> 100 µM	> 100 µM	> 100 µM	> 100 µM		> 100 µM
COc1cccc(Cc2c3cc(OC)ccc3cc[n+]2C)c1		> 100 µM		> 100 µM		92.3 µM	> 100 µM	> 100 µM		
c1ccc2c(c1)nc(NC1CCCC1)c1[nH]c(C3CCCC3)nc12		28.3 µM	6.82 µM	35.9 µM	46 µM	36.9 µM	32.8 µM	21.2 µM		63.5 µM
